The subject of assay [1] is ERK1/2 phosphorylation of p90RSK in HT29 cells. Briefly: pRSK MSD Assay in HT29 cells. The format is cell-based. As to conditions: Homo sapiens, HT-29, read-out: ERK1/ERK2 PRSK MSD HT29 EC50. The procedure, abridged: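 Serum-starved HT29 cells (0.1% FBS overnight) treated with test compound for 120 min at 37° C, then lysed with protease and phosphatase inhibitors. Phospho-p90RSK quantified by MSD sandwich immunoassay: RSK capture antibody, phospho-RSK detection antibody plus Sulfo-tagged antibody, electrochemiluminescence read.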

Assay [2] deals with ERK1/2 phosphorylation of p90RSK in A375 cells. The assay can be described thus: Detection of total and phosphor-RSK by MSD ELISA (A375). As to conditions: Homo sapiens, A-375, read-out: ERK1/ERK2 PRSK A375 EC50. The format is cell-based. The procedure, abridged:
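A375 cells serum-starved overnight in DMEM/0.1% FBS, then treated 2 h at 37° C with compound (1000× DMSO dilutions into medium). Lysates captured on RSK antibody-coated MSD plates; phospho-RSK (Ser380) and total RSK detected with SulfoTag secondary antibodies by electrochemiluminescence.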
(In an ELISA, binding on a coated surface is turned into a signal by an enzyme label.)

Bounds are passed on as bounds.

Take `C=CC(=O)Nc1cc(O[C@H](C)C(=O)N2CCN(C(C)=O)CC2)ccc1Nc1nc(Nc2cc(OC)ncc2C)ncc1C(F)(F)F` [Compound I-409, (R)—N-(5-((1-(4-acetylpiperazin-1-yl)-1-oxopropan-2-yl)oxy)-2-((2-((2-methoxy-5-methylpyridin-4-yl)amino)-5-(trifluoromethyl)pyrimidin-4-yl)amino)phenyl)acrylamide]: the figures for the EC50 in assay [1] and in assay [2] were 501 to 999 nM and greater than 1000 nM, respectively.
On to `C=CC(=O)Nc1cc(O[C@H](C)C(=O)N2CCN(S(C)(=O)=O)CC2)ccc1Nc1nc(Nc2cc(OC)ncc2C)ncc1C(F)(F)F` [Compound I-410, (R)—N-(2-((2-((2-methoxy-5-methylpyridin-4-yl)amino)-5-(trifluoromethyl)pyrimidin-4-yl)amino)-5-((1-(4-(methylsulfonyl)piperazin-1-yl)-1-oxopropan-2-yl)oxy)phenyl)acrylamide], for which the EC50 in assay [1] and in assay [2] was 101 to 500 nM in each case.
With `C=CC(=O)Nc1c(Nc2nc(Nc3cc(OC)ncc3C)ncc2OC)cccc1OCc1nccs1` [Compound I-411, N-(2-((5-methoxy-2-((2-methoxy-5-methylpyridin-4-yl)amino)pyrimidin-4-yl)amino)-6-(thiazol-2-ylmethoxy)phenyl)acrylamide], the EC50 in assay [1] and in assay [2] was greater than 1000 nM throughout.
With `C=CC(=O)Nc1cc(O[C@@H](C)C(N)=O)ccc1Nc1nc(Nc2cc(OC)ncc2C)ncc1C(F)(F)F` [Compound I-412, (S)—N-(5-((1-amino-1-oxopropan-2-yl)oxy)-2-((2-((2-methoxy-5-methylpyridin-4-yl)amino)-5-(trifluoromethyl)pyrimidin-4-yl)amino)phenyl)acrylamide], the EC50 in assay [1] is greater than 1000 nM; in assay [2], less than 100 nM.
In the case of `C=CC(=O)Nc1cc(O[C@H](C)C(N)=O)ccc1Nc1nc(Nc2cc(OC)ncc2C)ncc1C(F)(F)F` [Compound I-413, (R)—N-(5-((1-amino-1-oxopropan-2-yl)oxy)-2-((2-((2-methoxy-5-methylpyridin-4-yl)amino)-5-(trifluoromethyl)pyrimidin-4-yl)amino)phenyl)acrylamide], the EC50 in assay [1] and in assay [2] was less than 100 nM in each case.
For `C=CC(=O)Nc1cc(OCC(=O)N2CCN(C(C)=O)CC2)ccc1Nc1nc(Nc2cc(OC)ncc2OC)ncc1C(F)(F)F` [Compound I-415, N-(5-(2-(4-acetylpiperazin-1-yl)-2-oxoethoxy)-2-((2-((2,5-dimethoxypyridin-4-yl)amino)-5-(trifluoromethyl)pyrimidin-4-yl)amino)phenyl)acrylamide], the EC50 in assay [1] and in assay [2] was 501 to 999 nM in each case.
On to `C=CC(=O)Nc1cc(OCCN2CCN(C(C)=O)CC2)ccc1Nc1nc(Nc2cc(OC)ncc2C)ncc1C(F)(F)F` [Compound I-416, N-(5-(2-(4-acetylpiperazin-1-yl)ethoxy)-2-((2-((2-methoxy-5-methylpyridin-4-yl)amino)-5-(trifluoromethyl)pyrimidin-4-yl)amino)phenyl)acrylamide], for which the EC50 in assay [1] and in assay [2] was 101 to 500 nM throughout.
With `C=CC(=O)Nc1cc(C)ccc1Nc1nc(NCC2COC2)ncc1C(F)(F)F` [Compound I-417, N-(5-methyl-2-((2-((oxetan-3-ylmethyl)amino)-5-(trifluoromethyl)pyrimidin-4-yl)amino)phenyl)acrylamide], the EC50 in assay [1] and in assay [2] was greater than 1000 nM throughout.
On to `C=CC(=O)Nc1cc(C)ccc1Nc1nc(Nc2cc(C(=O)OC)nn2C)ncc1C(F)(F)F` [Compound I-418, Methyl 5-((4-((2-acrylamido-4-methylphenyl)amino)-5-(trifluoromethyl)pyrimidin-2-yl)amino)-1-methyl-1H-pyrazole-3-carboxylate], for which the EC50 in assay [1] and in assay [2] was 501 to 999 nM each time.
For the molecule `C=CC(=O)Nc1cc(C)ccc1Nc1nc(Nc2cc(C(F)(F)F)nn2C)ncc1C(F)(F)F` [Compound I-419, N-(5-methyl-2-((2-((1-methyl-3-(trifluoromethyl)-1H-pyrazol-5-yl)amino)-5-(trifluoromethyl)pyrimidin-4-yl)amino)phenyl)acrylamide], the EC50 in assay [1] and in assay [2] was greater than 1000 nM each time.
On to `C=CC(=O)Nc1cc(C)ccc1Nc1nc(NC2COC2)ncc1C(F)(F)F` [Compound I-420, N-(5-methyl-2-((2-(oxetan-3-ylamino)-5-(trifluoromethyl)pyrimidin-4-yl)amino)phenyl)acrylamide], for which the EC50 in assay [1] and in assay [2] was greater than 1000 nM each time.
For the molecule `C=CC(=O)Nc1cc(CN2CCN(C(C)=O)C[C@@H]2C)ccc1Nc1nc(Nc2cc(OC)ncc2C)ncc1C(F)(F)F` [Compound I-421, (S)—N-(5-((4-acetyl-2-methylpiperazin-1-yl)methyl)-2-((2-((2-methoxy-5-methylpyridin-4-yl)amino)-5-(trifluoromethyl)pyrimidin-4-yl)amino)phenyl)acrylamide], the EC50 in assay [1] and in assay [2] was 101 to 500 nM each time.
Turning to `C=CC(=O)Nc1cc(CN2CCN(C(C)=O)C[C@H]2C)ccc1Nc1nc(Nc2cc(OC)ncc2C)ncc1C(F)(F)F` [Compound I-422, (R)—N-(5-((4-acetyl-2-methylpiperazin-1-yl)methyl)-2-((2-((2-methoxy-5-methylpyridin-4-yl)amino)-5-(trifluoromethyl)pyrimidin-4-yl)amino)phenyl)acrylamide], the EC50 in assay [1] and in assay [2] was 101 to 500 nM each time.
Take `C=CC(=O)Nc1cc(C)ccc1Nc1nc(Nc2cc(C(N)=O)nn2C)ncc1C(F)(F)F` [Compound I-423, 5-((4-((2-acrylamido-4-methylphenyl)amino)-5-(trifluoromethyl)pyrimidin-2-yl)amino)-1-methyl-1H-pyrazole-3-carboxamide]: the EC50 in assay [1] and in assay [2] was greater than 1000 nM throughout.
In the case of `C=CC(=O)Nc1cc(C)ccc1Nc1nc(Nc2cc(C(=O)NC)nn2C)ncc1C(F)(F)F` [Compound I-424, 5-((4-((2-acrylamido-4-methylphenyl)amino)-5-(trifluoromethyl)pyrimidin-2-yl)amino)-N,1-dimethyl-1H-pyrazole-3-carboxamide], the EC50 lay in the range of 101 to 500 nM in assay [1] and 501 to 999 nM in assay [2].
As for `C=CC(=O)Nc1cc(O[C@@H](C)C(=O)N2CCN(C(C)=O)CC2)ccc1Nc1nc(Nc2cc(OC)ncc2C)ncc1C(F)(F)F` [Compound I-425, (S)—N-(5-((1-(4-acetylpiperazin-1-yl)-1-oxopropan-2-yl)oxy)-2-((2-((2-methoxy-5-methylpyridin-4-yl)amino)-5-(trifluoromethyl)pyrimidin-4-yl)amino)phenyl)acrylamide], the EC50 in assay [1] was in the range of 101 to 500 nM; in assay [2] it was 501 to 999 nM.
In the same order, the values of `C=CC(=O)Nc1cc(O[C@@H](C)C(=O)N2CCN(S(C)(=O)=O)CC2)ccc1Nc1nc(Nc2cc(OC)ncc2C)ncc1C(F)(F)F` [Compound I-426, (S)—N-(2-((2-((2-methoxy-5-methylpyridin-4-yl)amino)-5-(trifluoromethyl)pyrimidin-4-yl)amino)-5-((1-(4-(methylsulfonyl)piperazin-1-yl)-1-oxopropan-2-yl)oxy)phenyl)acrylamide] are less than 100 nM and 101 to 500 nM.
For `C=CC(=O)Nc1cc(CCc2cnn(C)c2)ccc1Nc1nc(Nc2cc(OC)ncc2C)ncc1C(F)(F)F` [Compound I-427, N-(2-((2-((2-methoxy-5-methylpyridin-4-yl)amino)-5-(trifluoromethyl)pyrimidin-4-yl)amino)-5-(2-(1-methyl-1H-pyrazol-4-yl)ethyl)phenyl)acrylamide], in that order: 101 to 500 nM and 101 to 500 nM.
Take `C=CC(=O)Nc1cc(C)ccc1Nc1nc(Nc2cc(OC)ncc2C(F)F)ncc1C(F)(F)F` [Compound I-431, N-(2-((2-((5-(difluoromethyl)-2-methoxypyridin-4-yl)amino)-5-(trifluoromethyl)pyrimidin-4-yl)amino)-5-methylphenyl)acrylamide]: the EC50 in assay [1] and in assay [2] was 101 to 500 nM each time.

The record behind these values is US9561228B2 (Celgene Avilomics Research, Inc., priority 2013, dated 2017).
